This is an account of results in patent US11866502B2, “Anti-FGFR2 antibodies and methods of use thereof” (Regeneron Pharmaceuticals, Inc., priority 2020, dated 2024).

Assay [1] deals with SNU-16 cells. The experiment in a line: In vitro cytotoxicity assay (CellTiter-Glo 2.0), SNU-16 cells. Type of assay: cell-based, human. Particulars: for Max % Kill: SNU-16, up to 20 nM. Here is the method:
(§1) To test the ability of anti-FGFR2 antibody drug conjugates (ADCs) disclosed herein to kill human cell lines, an in vitro cytotoxicity assay was performed. In vitro cytotoxicity of the anti-FGFR2 ADCs, isotype control ADCs, and reference free payloads were evaluated using the CellTiter-Glo 2.0 Assay Kit (Promega, Cat #G9243), in which the quantity of ATP present is used to determine the number of viable cells in culture. The payloads Maytansinoid 1A, Maytansinoid 1A* (a cell permeable equivalent of Maytansinoid 1A), and Tubulysin 1A were tested as free payloads, and the unconjugated antibodies, including comparator antibodies, were used as controls.
(§2) Five-fold serial dilutions of anti-FGFR2 ADCs or isotype control ADCs were prepared in dilution media (Optimem+0.1% BSA) and added to cells at final concentrations ranging from 20 nM to 0.051 pM (concentrations were corrected for the DAR and are dosed based on the effective payload concentration). Five-fold serial dilutions of free payloads were prepared in 100% DMSO, transferred to fresh dilution media, and then added to the cells at a final constant DMSO concentration of 0.2% and final payload concentrations ranging from 20 nM to 0.051 pM. The last well in each dilution series served as an untreated control and included media alone or media plus 0.2% DMSO and was plotted as a continuation of the 5-fold serial dilution. Six days later, 100 uL of CellTiter Glo 2.0 was added to each well, plates were mixed for 2 minutes on an orbital shaker, and plates were incubated at room temperature for 10 minutes. Relative light units (RLUs) were measured on an Envision luminometer (Perkin Elmer) and cell viability was expressed as a percentage of the untreated (100% viable) cells. IC50 values were determined using a four-parameter logistic equation over a 10-point dose response curve (GraphPad Prism). The maximum % kill was also determined for each test article as follows: 100−minimum percent viability.

In assay [2] the test system is SNU-16, MFM-223, NCI-H716, or IM-9 cells. In words: In vitro cytotoxicity assay, several cell lines. The assay is classed as cell-based, human. The settings on record: for IC50: Homo sapiens, read-out: IC50 values. Here is the method: as §1
as §2, with “Five-fold” for “Five-fold serial dilutions of anti-FGFR2 ADCs or isotype control ADCs were prepared in dilution media (Optimem+0.1% BSA) and added to cells at final concentrations ranging from 20 nM to 0.051 pM (concentrations were corrected for the DAR and are dosed based on the effective payload concentration). Five-fold”
A comparator anti-FGFR2 ADC that recognizes both FGFR2b and FGFR2c and is conjugated to an auristatin payload (Comp2-BAY-LP) was also tested for cytotoxicity.

A further assay concerns SNU-16 + NALM-6 Cells. The experiment in a line: In vitro bystander assay, SNU-16 + NALM-6 coculture (1:1). The assay is classed as cell-based. Here is the method:
as §2, with “The last well in each dilution series served as an untreated control and included media alone or media plus 0.2% DMSO and was plotted as a continuation of the 5-fold serial dilution. Six days later, 100 uL of CellTiter Glo 2.0 was added to each well, plates were mixed for 2 minutes on an orbital shaker, and plates were incubated at room temperature for 10 minutes.” left out
(§3) The ability of the anti-FGFR2 ADCs to induce cytotoxicity in FGFR2 negative cells through release of the payload in FGFR2 positive cells, i.e., bystander activity, was also assessed. […] Cytotoxicity was assessed as described previously for tumor cell lines except that three-fold serial dilutions were performed for all test articles with concentrations ranging from 100 nM to 15.2 pM, and cells were incubated with test articles for 5 days.

For a further assay, the system named is NALM-6 cells. In words: In vitro bystander assay, NALM-6 monoculture. The assay is classed as cell-based. Here is the method:
as §2, with “The last well in each dilution series served as an untreated control and included media alone or media plus 0.2% DMSO and was plotted as a continuation of the 5-fold serial dilution. Six days later, 100 uL of CellTiter Glo 2.0 was added to each well, plates were mixed for 2 minutes on an orbital shaker, and plates were incubated at room temperature for 10 minutes.” left out
as §3

Assay [3] deals with SNU-16 cells. In words: In vitro bystander assay, SNU-16 monoculture. The assay is classed as cell-based, human. On the procedure:
as §2, with “The last well in each dilution series served as an untreated control and included media alone or media plus 0.2% DMSO and was plotted as a continuation of the 5-fold serial dilution. Six days later, 100 uL of CellTiter Glo 2.0 was added to each well, plates were mixed for 2 minutes on an orbital shaker, and plates were incubated at room temperature for 10 minutes.” left out
as §3

A further assay concerns NCI-H716 cells. The experiment in a line: In vitro cytotoxicity assay (CellTiter-Glo 2.0), NCI-H716 cells. Type of assay: cell-based, human. Particulars: for Max % Kill: NCI-H716, up to 20 nM. Here is the method: as §1, §2
In the next assay the test system is MFM-223 cells. The experiment in a line: In vitro cytotoxicity assay (CellTiter-Glo 2.0), MFM-223 cells. Particulars: for Max % Kill: MFM-223, up to 20 nM. Type of assay: cell-based, human. Here is the method:
as §1, §2

The test system of another assay is IM-9 cells. In words: In vitro cytotoxicity assay (CellTiter-Glo 2.0), IM-9 cells. The assay is classed as cell-based, human. The settings on record: for Max % Kill: IM-9, up to 20 nM. On the procedure: as §1, §2
A further assay deals with FGFR2 positive tumors. Particulars: cited from earlier work.
For the next assay, the target named is T1, hFGFR2c.mmh (Homo sapiens, UniProt P21802).
T1 construct: myc-myc-hexahistidine (MMH) (C); made in house
In words: Biacore surface plasmon resonance binding kinetics to hFGFR2c.mmh. The settings on record: 25° C. On the procedure: The equilibrium dissociation constants (KD values) for hFGFR2b.mmh binding to anti-FGFR2 antibodies conjugated with Tubulysin (“tubulysin 1ALP”), Auristatin (“auristatin LP1”), or mc-VC-PAB-NMe-C3-May (“maytansinoid 1ALP”) were determined using a real-time surface plasmon resonance biosensor assay on a Biacore 2000 or a Biacore 4000 instrument. The Biacore sensor surface was derivatized by amine coupling with a monoclonal mouse anti-human Fc antibody (REGN2567 or Jackson Cat. No #109-005-098) to capture anti-FGFR2 ADC and parent unmodified antibodies expressed with human constant regions. Biacore binding studies were performed in HBS-EP running buffer (0.01M HEPES pH 7.4, 0.15M NaCl, 3 mM EDTA, 0.05% v/v Surfactant P20). […] Association of hFGFR2b-MMH or hFGFR2c-MMH to each of the captured ADCs and monoclonal antibodies was monitored for 4 minutes. Subsequently, dissociation was monitored for 10 minutes in HBS-EP running buffer. […] Kinetic association (ka) and dissociation (kd) rate constants were determined by fitting the real-time sensorgrams to a 1:1 binding model using Scrubber 2.0c curve fitting software. […] Binding dissociation equilibrium constants (KD) and dissociative half-lives (t½) were calculated from the kinetic rate constants as: […]

For a further assay, the target named is T2, hFGFR2b.mmh (Homo sapiens, UniProt P21802).
T2 construct: myc-myc-hexahistidine (MMH) (C); made in house
In words: Biacore surface plasmon resonance binding kinetics to hFGFR2b.mmh. The settings on record: 25° C. On the procedure:
The Biacore sensor surface was derivatized by amine coupling with a monoclonal mouse anti-human Fc antibody (REGN2567 or Jackson Cat. […] Human FGFR2b and Human FGFR2c were prepared in-house expressing a C-terminal myc-myc-hexahistidine tag ([…] NO: 57; […] NO: 58). […] Association of hFGFR2b-MMH or hFGFR2c-MMH to each of the captured ADCs and monoclonal antibodies was monitored for 4 minutes. Subsequently, dissociation was monitored for 10 minutes in HBS-EP running buffer. Anti-human Fc surface was regenerated by a brief injection of 20 mM H3PO4. All binding kinetic experiments were performed at 25° C. […] All sensorgrams were double referenced by subtracting buffer injection sensorgram signal from the corresponding analyte sensorgram, thereby removing artifacts caused by dissociation of the antibody from the capture surface. […] [formula]

Where two headings read alike, the source gives them in different places.

T2 sequence (P21802 with tags, fused parts or gaps isoform P21802-3): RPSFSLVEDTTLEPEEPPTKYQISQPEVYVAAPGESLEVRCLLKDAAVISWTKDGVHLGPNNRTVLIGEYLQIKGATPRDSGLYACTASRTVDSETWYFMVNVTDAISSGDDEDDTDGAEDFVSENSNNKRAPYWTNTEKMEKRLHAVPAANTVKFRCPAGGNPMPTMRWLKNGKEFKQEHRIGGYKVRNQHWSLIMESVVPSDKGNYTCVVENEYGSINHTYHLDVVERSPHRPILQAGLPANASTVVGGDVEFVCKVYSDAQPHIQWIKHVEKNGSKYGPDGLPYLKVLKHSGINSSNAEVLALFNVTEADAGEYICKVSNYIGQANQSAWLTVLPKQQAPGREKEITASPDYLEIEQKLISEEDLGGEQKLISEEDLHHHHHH
T1 sequence (P21802 with tags, fused parts or gaps): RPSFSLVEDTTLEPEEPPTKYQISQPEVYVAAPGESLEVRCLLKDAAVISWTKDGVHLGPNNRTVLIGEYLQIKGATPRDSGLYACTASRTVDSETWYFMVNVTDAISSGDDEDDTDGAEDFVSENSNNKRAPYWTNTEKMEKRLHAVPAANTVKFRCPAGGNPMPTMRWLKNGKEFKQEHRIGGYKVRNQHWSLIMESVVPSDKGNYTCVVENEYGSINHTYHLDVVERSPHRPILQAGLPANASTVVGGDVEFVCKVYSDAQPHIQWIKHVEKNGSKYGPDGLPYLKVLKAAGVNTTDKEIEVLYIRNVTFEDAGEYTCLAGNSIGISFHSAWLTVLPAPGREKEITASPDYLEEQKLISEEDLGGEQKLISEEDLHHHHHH

As to `C#CCCCON(C(=O)[C@@H](NC(=O)[C@H]1CCCCN1C)[C@@H](C)CC)[C@H](C[C@@H](OC(C)=O)c1nc(C(=O)N[C@@H](Cc2ccc(N)cc2)CC(C)(C)C(=O)O)cs1)C(C)C` [Tubulysin 1A], the half-maximal inhibitory concentration (IC50) is 0.00369 nM in the assay with SNU-16 cells [1] (Homo sapiens, SNU-16, 144 h); 0.00369 to 0.0743 nM in [2]; 0.166 nM in the assay on SNU-16 + NALM-6 Cells (120 h); 0.0709 nM with NALM-6 cells (Homo sapiens, NALM-6, 120 h); 0.0184 nM in the assay with SNU-16 cells [3] (Homo sapiens, SNU-16, 120 h); 0.0743 nM with NCI-H716 cells (Homo sapiens, NCI-H716, 144 h). The IC50 worked out at 0.00376 nM in the assay on MFM-223 cells (Homo sapiens, MFM-223, 144 h) and 0.0212 nM with IM-9 cells (Homo sapiens, IM-9, 144 h). The “Max % Kill” value in the assay on SNU-16 cells [1] (6 days) was 95.1%; in the assay with SNU-16 + NALM-6 Cells (SNU-16 + NALM-6 1:1 coculture, 5 days), 99.5%; in the assay with NALM-6 cells (NALM-6 monoculture, 5 days), 99.9%; in the assay on SNU-16 cells [3] (SNU-16 monoculture, 5 days), 99.3%; in the assay with NCI-H716 cells (6 days), 84.9%; in the assay with MFM-223 cells (6 days), 89.7%. Further, the “Max % Kill” value in the assay with IM-9 cells (6 days) is recorded as 94.6%.
With `CNCCC(=O)N(C)[C@@H](C)C(=O)O[C@H]1CC(=O)N(C)c2cc(cc(OC)c2Cl)C/C(C)=C/C=C/[C@@H](OC)[C@@]2(O)C[C@H](OC(=O)N2)[C@@H](C)[C@@H]2O[C@@]12C` [maytansinoid 1A], the concentration for half-maximal inhibition (IC50) with SNU-16 cells [1] (Homo sapiens, 144 h, SNU-16 (FGFR2b positive), 6 days, read-out: IC50) was > 20 nM; in assay [2] (all tested cells, lower end of range, upper end >20 nM) it was ≥ 4.63 nM; in the assay on NCI-H716 cells (Homo sapiens, 144 h, NCI-H716 (low FGFR2b, high FGFR2c), 6 days, read-out: IC50), > 20 nM; in the assay on MFM-223 cells (Homo sapiens, MFM-223, 144 h, read-out: IC50), > 20 nM; in the assay on IM-9 cells (Homo sapiens, 144 h, IM-9 (non-FGFR2 expressing), 6 days, read-out: IC50), > 20 nM. Also, the “Max % Kill” value in the assay with SNU-16 cells [1] (6 days) amounted to 9.2%; in the assay on NCI-H716 cells (6 days), 6.4%; with MFM-223 cells (6 days), 18.1%; in the assay with IM-9 cells (6 days) it was 3.7%.

B1: Bemarituzumab: anti-FGFR2 therapy (antibody, chains of the INN, looked up, V domains shown)
VH: QVQLVQSGAEVKKPGSSVKVSCKASGYIFTTYNVHWVRQAPGQGLEWIGSIYPDNGDTSYNQNFKGRATITADKSTSTAYMELSSLRSEDTAVYYCARGDFAYWGQGTLVTVSS
VL: DIQMTQSPSSLSASVGDRVTITCKASQGVSNDVAWYQQKPGKAPKLLIYSASYRYTGVPSRFSGSGSGTDFTFTISSLQPEDIATYYCQQHSTTPYTFGQGTKLEIK
As for B1, in the assay with FGFR2 positive tumors, the “treatment outcome” value is “improvements in early survival and advanced disease”.

B2: Comp1: Comparator (Five Prime Therapeutics): humanized anti-FGFR2b isoform antibody of Catenacci et al. (Bemarituzumab, FPA144) (antibody, chains of the INN, looked up, V domains shown)
VH: QVQLVQSGAEVKKPGSSVKVSCKASGYIFTTYNVHWVRQAPGQGLEWIGSIYPDNGDTSYNQNFKGRATITADKSTSTAYMELSSLRSEDTAVYYCARGDFAYWGQGTLVTVSS
VL: DIQMTQSPSSLSASVGDRVTITCKASQGVSNDVAWYQQKPGKAPKLLIYSASYRYTGVPSRFSGSGSGTDFTFTISSLQPEDIATYYCQQHSTTPYTFGQGTKLEIK
In the case of B2, the Kd with hFGFR2c.mmh was > 30 nM; in the assay with hFGFR2b.mmh it was 60.8 nM. Moreover, the “Antigen Bound (RU)” value with hFGFR2c.mmh (antibody captured on anti-human Fc surface) is recorded as 0.6 RU; in the assay with hFGFR2b.mmh (antibody or ADC captured on anti-human Fc surface) it was 68.3 RU. Also, the IC50 is > 20 nM in the assay with SNU-16 cells [1] (SNU-16 (FGFR2b positive), 6 days, read-out: IC50); > 20 nM with NCI-H716 cells (NCI-H716 (low FGFR2b, high FGFR2c), 6 days, read-out: IC50); > 20 nM with MFM-223 cells (MFM-223 (FGFR2b positive), 6 days, read-out: IC50); > 20 nM in the assay with IM-9 cells (IM-9 (non-FGFR2 expressing), 6 days, read-out: IC50). In addition, the “Max % Kill” value is 0.0% in the assay with SNU-16 cells [1] (6 days), 9.9% in the assay with NCI-H716 cells (6 days), 0.8% with MFM-223 cells (6 days) and 3.8% with IM-9 cells (6 days). Also, the EC50 in [2] (all tested lines, unconjugated antibodies) is > 20 nM. Moreover, the “ka” value with hFGFR2b.mmh came to 77400 M⁻¹ s⁻¹. In the assay with hFGFR2b.mmh, the “kd” value was found to be 0.00471 s⁻¹. For the same molecule, the “t1/2” value in the assay with hFGFR2b.mmh (dissociative half-life) came out at 2.5 min.
